# According to patent US20150141506A1, “INDANE DIMERS FOR USE IN THE TREATMENT OF AUTOIMMUNE INFLAMMATORY DISEASE” (Venantius Limited, priority 2012, published 2015):
# “Also recorded” adds a separate entry of the source. Read-outs that look alike come from different tables or passages of the source.
# What was measured:
# [1] = Plasma half-life in the rat; type: in vivo; details: read-out: plasma half-life (t1/2) (converted)
# [2] = Solubility in Milli-RO water and pH buffers; type: physicochemical
# Experimental: The sodium salt, potassium salt, calcium salt, α-methylbenzylamine salt and N-Methyl-(D)-Glucamine salt were synthesised.
# The solubility of the four compounds were determined: […]
# [3] = Partition coefficient (Log10 POW) by HPLC method; type: physicochemical; details: reverse phase C18 HPLC
# [4] = tested on: chronic colitis in IL10-/- BALB/c strain mice; test: Chronic IL10-/- colitis model; type: in vivo; details: MWF
# Experimental: FIG. 15: Is a group showing weight loss in IL10^−−/−− mice treated with vehicle or compound 6. Mice were administered compound 6 (300 mg/kg/week) or vehicle orally on a Monday/Wednesday/Friday (MWF) dosing schedule. Mice were ˜4 weeks of age at start of experiment and were treated for 9 weeks. Mice were weighed weekly and data are presented as Mean±SEM from 9-12 mice per group. Mice were monitored for overt disease, rectal prolapse, and moribund animals were humanely killed;
# Mice with a deletion in the IL10^−−/−− gene spontaneously develop chronic colitis, with the age of onset and the severity of the disease being dependent on background mouse strain and the conditions in which the animals are housed. The onset of colitis in IL10^−−/−− mice housed under the conditions used in this study was also strain dependent, with an earlier onset and greater severity, in terms of mortality, in BALB/c strain mice relative to C57BL/6 strain animals. In this experiment, animals received oral treatment on a MWF regime over 9 weeks. Initially, both groups of mice progressively gain weight (FIG. 15). […] By week 9 animals had marked weight loss, with one moribund animal humanely killed on day 60 in each group. As other mice were losing weight and developing clinical symptoms of disease, both groups were culled at week 9 (day 63) and analysed.
# [5] = tested on: 5% DSS colitis in BALB/c mice; test: Acute murine 5% DSS colitis model, Experiment 1; type: in vivo
# Text: The study is widely used as a model for studying the pathogenesis of UC and also for screening new therapeutic interventions for the treatment of UC.
# In these studies, an acute colitis model was used, with 5% DSS administered in the drinking water of BALB/c mice. This dosage regime induces severe acute colitis, by days 7-8 mice had overt rectal bleeding and marked weight loss; unless sacrificed beforehand, all mice would have died by days 10-12.
# Specific Pathogen-Free BALB/c mice, 6-8 weeks of age, were obtained from a commercial supplier (Harlan UK). Mice were fed irradiated diet and housed in individually ventilated cages (Tecniplast UK) under positive pressure.
# DSS (5%) was dissolved in drinking water. Compounds were administered orally at a dose of 10 mg/kg or 30 mg/kg on days 0-7, and mice were culled on day 8 or day 9, depending on the severity of the disease. The mice were checked each day for morbidity and the weight of individual mice was recorded. Induction of colitis was determined upon autopsy, length of colon and histology. Colons were recovered and stored at −20° C. for immunological analysis. All of the compounds and experimental groups are randomly alphabetically labelled. Throughout experiments all data recording was performed in a blind manner. The codes on boxes/groups were not broken until after the data was analysed i.e. boxes labelled A, B, C etc were identified as untreated, DSS-treated, or DSS+compound-treated.
# To quantify the extent of colitis, a disease activity index (DAI) was determined based on weight loss, faecal blood and stool consistency. A score was given for each parameter, with the sum of the scores used as the DAI. For each treatment group n=8.
# All compounds were prepared for oral gavage (0.1 mL per os (p.o.) per 10 g body weight) as a suspension in 0.5% carboxymethyl cellulose/2% Tween 80, at a dose of 3-30 mg/Kg.
# [6] = 3, 10 and 30 mg/Kg oral daily for 7 days
smiles,measurement,setting,value
O=C(O)c1ccc(C[C@@]2(C3=Cc4ccccc4C3)Cc3ccccc3[C@H]2O)cc1 [Compound 6],half-life,[1],3 h
same,solubility,"[2]; Milli-RO water, water, read-out: solubility, Milli-RO H20",> 60000 µg/mL
same,solubility,"[2]; pH 4.0 buffer, pH 4, aqueous buffer, read-out: solubility, pH 4.0 Buffer",0.5 µg/mL
same,solubility,"[2]; pH 7.0 buffer, pH 7, aqueous buffer, read-out: solubility, pH 7.0 Buffer",> 60000 µg/mL
same,solubility,"[2]; pH 9.0 buffer, pH 9, aqueous buffer, read-out: solubility, pH 9.0 Buffer",> 3000 µg/mL
same,"Log10 POW, Acid",[3]; acidic pH,2.6
same,"Log10 POW, Basic",[3]; alkaline pH,4.3
same,"Log10 POW, Neutral",[3]; neutral pH,3.5
same,survival by Kaplan-Meier analysis versus vehicle,"[4]; 300 mg/kg/week oral, 9 weeks",no statistical difference in survival
same,"weight loss and deaths from colitis relative to vehicle, in words","[4]; 300 mg/kg/week oral, 9 weeks",delayed weight loss and reduced deaths from colitis
same,mortalities,"[4]; 300 mg/kg/week oral, 9 weeks, vehicle 25%",9.2%
same,weight gain maintained until,"[4]; 300 mg/kg/week oral, vehicle stopped gaining from week 5",8 week
same,Serum Amyloid A (SAA) levels relative to vehicle,"[4]; week 9, 300 mg/kg/week oral",significantly (P<0.05; Student's t-test) reduced
same,extent of colon pathology (histology score) relative to vehicle,"[4]; week 9, 300 mg/kg/week oral",significantly reduced
same,colon pathology (histology score) relative to vehicle,[5]; 10 mg/Kg,highly statistically significant reduction
same,colon pathology (histology score) relative to vehicle,[5]; 30 mg/Kg,highly statistically significant reduction
same,overt reactions in mice,[5]; [6],caused no overt reactions
same,"severity of colitis, multiple parameters of disease",[5]; [6],ameliorated the severity of colitis; also recorded: dose-dependent
same,DAI on the day of autopsy versus vehicle controls,"[5]; 3-30 mg/kg, each dose level",significantly (P<0.05-P<0.01) lower
same,"potency compared among the four enantiomers, in words",[5]; 30 and 10 mg/kg,most potent of the four enantiomers
same,efficacy relative to prednisolone at 5 mg/Kg,[5]; compound 6 at 30 mg/Kg,"comparable, or better; also recorded: comparable or better"
same,inhibition of colon shortening versus vehicle controls,"[5]; day 7, 3 mg/kg",did not have a significant effect
same,inhibition of colon shortening versus vehicle controls,"[5]; day 7, 10 mg/kg",did have a significant effect
same,disease activity index (DAI),"[5]; day 7, 10 mg/kg daily for 7 days, vehicle 9.3±0.51",3.3±0.52
same,"colon cytokine levels (IL1β, TNFα, IL6)","[5]; day 7, 30 mg/kg","significant (P<0.05, 30 mg/kg) and dose-dependant reduction"
same,inhibition of colon shortening versus vehicle controls,"[5]; day 7, 30 mg/kg",did have a significant effect; also recorded: significantly better than Prednisolone
same,reduction of colonic myeloperoxidase (MPO) activity,"[5]; day 7, 30 mg/kg",63%
